Values after ≈ are worked out from the molar mass of the structure shown.
Assays:
Type in all cases: functional
[1] = system: Candida albicans; experiment: Antifungal activity against fluconazole-resistant Candida albicans clinical isolate 103 assessed as inhibition of fungal growth by CLSI M27-A3 guidelines based method
[2] = system: Candida albicans; experiment: Antifungal activity against Candida albicans GIM 2.194 assessed as inhibition of fungal growth by CLSI M27-A3 guidelines based method
[3] = system: Candida tropicalis; experiment: Antifungal activity against Candida tropicalis GIM 2.183 assessed as inhibition of fungal growth by CLSI M27-A3 guidelines based method
[4] = system: Candida albicans; experiment: Antifungal activity against fluconazole-resistant Candida albicans CaR assessed as inhibition of fungal growth by CLSI M27-A3 guidelines based method
[5] = system: Candida albicans; experiment: Antifungal activity against fluconazole-resistant Candida albicans clinical isolate 632 assessed as inhibition of fungal growth by CLSI M27-A3 guidelines based method
[6] = system: Candida parapsilosis; experiment: Antifungal activity against Candida parapsilosis GIM 2.190 assessed as inhibition of fungal growth by CLSI M27-A3 guidelines based method; settings: Lodderomyces parapsilosis
[7] = system: Nakaseomyces glabratus; experiment: Antifungal activity against Candida glabrata assessed as inhibition of fungal growth by CLSI M27-A3 guidelines based method
[8] = system: Candida albicans; experiment: Antifungal activity against fluconazole-resistant Candida albicans clinical isolate 311 assessed as inhibition of fungal growth by CLSI M27-A3 guidelines based method
[9] = system: Candida albicans; experiment: Antifungal activity against Candida albicans SC5314 assessed as inhibition of fungal growth by CLSI M27-A3 guidelines based method
[10] = system: Cryptococcus neoformans; experiment: Antifungal activity against Cryptococcus neoformans CGMCC 2.3161 assessed as inhibition of fungal growth by CLSI M27-A3 guidelines based method
[11] = system: Candida albicans; experiment: Antifungal activity against fluconazole-resistant Candida albicans clinical isolate 904 assessed as inhibition of fungal growth by CLSI M27-A3 guidelines based method
[12] = system: Candida albicans; experiment: Antifungal activity against fluconazole-resistant Candida albicans clinical isolate 100 assessed as inhibition of fungal growth by CLSI M27-A3 guidelines based method
[13] = system: Aspergillus fumigatus; experiment: Antifungal activity against Aspergillus fumigatus cgmcc 3.7795 assessed as inhibition of fungal growth by CLSI M27-A3 guidelines based method
[14] = system: Candida albicans; experiment: Antifungal activity against fluconazole and iodiconazole resistant Candida albicans clinical isolate 17# assessed as inhibition of fungal growth by CLSI M27-A3 guidelines based method
[15] = system: Candida albicans; experiment: Antifungal activity against fluconazole-resistant Candida albicans clinical isolate 901 assessed as inhibition of fungal growth by CLSI M27-A3 guidelines based method
[16] = system: Pichia kudriavzevii; experiment: Antifungal activity against Candida krusei GIM 2.1 assessed as inhibition of fungal growth by CLSI M27-A3 guidelines based method

SMILES | MIC80 [1] [µg/mL] | MIC80 [2] [µg/mL] | MIC80 [3] [µg/mL] | MIC80 [4] [µg/mL] | MIC80 [5] [µg/mL] | MIC80 [6] [µg/mL] | MIC80 [7] [µg/mL] | MIC80 [8] [µg/mL] | MIC80 [9] [µg/mL] | MIC80 [10] [µg/mL] | MIC80 [11] [µg/mL] | MIC80 [12] [µg/mL] | MIC80 [13] [µg/mL] | MIC80 [14] [µg/mL] | MIC80 [15] [µg/mL] | MIC80 [16] [µg/mL]
C[C@@H](N(C)Cc1ccc(C#Cc2ccc(I)cc2)cc1)[C@](O)(Cn1cncn1)c1ccc(F)cc1F | 32 (≈ 53.5 µM) | 0.05 (≈ 0.0836 µM) | 0.013 (≈ 0.0217 µM) | 16 (≈ 26.7 µM) | 16 (≈ 26.7 µM) | 0.013 (≈ 0.0217 µM) | 0.03 (≈ 0.0501 µM) | > 64 | 0.05 (≈ 0.0836 µM) | 0.05 (≈ 0.0836 µM) | > 64 | 32 (≈ 53.5 µM) | 0.2 (≈ 0.334 µM) | 16 (≈ 26.7 µM) | 16 (≈ 26.7 µM) | 0.05 (≈ 0.0836 µM)
CN(Cc1ccc(C#Cc2ccc([N+](=O)[O-])cc2)cc1)CC(O)(Cn1cncn1)c1ccc(F)cc1F (configuration not stated) | – | 0.006 (≈ 0.0119 µM) | 0.006 (≈ 0.0119 µM) | – | – | 0.006 (≈ 0.0119 µM) | 0.03 (≈ 0.0596 µM) | – | 0.006 (≈ 0.0119 µM) | 0.013 (≈ 0.0258 µM) | – | – | – | – | – | 0.03 (≈ 0.0596 µM)
CC(C)c1ccc(C#Cc2ccc(CN(C)CC(O)(Cn3cncn3)c3ccc(F)cc3F)cc2)cc1 (configuration not stated) | – | 0.025 (≈ 0.0499 µM) | 0.013 (≈ 0.026 µM) | – | – | 0.05 (≈ 0.0999 µM) | 0.1 (≈ 0.2 µM) | – | 0.013 (≈ 0.026 µM) | 0.025 (≈ 0.0499 µM) | – | – | – | – | – | 0.2 (≈ 0.4 µM)
CN(Cc1ccc(C#Cc2ccccc2I)cc1)CC(O)(Cn1cncn1)c1ccc(F)cc1F (configuration not stated) | – | 0.006 (≈ 0.0103 µM) | 0.006 (≈ 0.0103 µM) | – | – | 0.006 (≈ 0.0103 µM) | 1.6 (≈ 2.74 µM) | – | 0.013 (≈ 0.0222 µM) | 0.025 (≈ 0.0428 µM) | – | – | – | – | – | 0.8 (≈ 1.37 µM)
C[C@@H](N(C)Cc1ccc(C#Cc2cc(F)c(Cl)cc2F)cc1)[C@](O)(Cn1cncn1)c1ccc(F)cc1F | 8 (≈ 14.7 µM) | 0.05 (≈ 0.0921 µM) | 0.006 (≈ 0.0111 µM) | 0.5 (≈ 0.921 µM) | 4 (≈ 7.37 µM) | 0.006 (≈ 0.0111 µM) | 0.05 (≈ 0.0921 µM) | 32 (≈ 58.9 µM) | 0.013 (≈ 0.0239 µM) | 0.013 (≈ 0.0239 µM) | 32 (≈ 58.9 µM) | 4 (≈ 7.37 µM) | 0.2 (≈ 0.368 µM) | 0.5 (≈ 0.921 µM) | 4 (≈ 7.37 µM) | 0.05 (≈ 0.0921 µM)
CN(Cc1ccc(C#Cc2ccc([N+](=O)[O-])cc2F)cc1)CC(O)(Cn1cncn1)c1ccc(F)cc1F (configuration not stated) | – | 0.006 (≈ 0.0115 µM) | 0.006 (≈ 0.0115 µM) | – | – | 0.006 (≈ 0.0115 µM) | 0.03 (≈ 0.0575 µM) | – | 0.006 (≈ 0.0115 µM) | 0.025 (≈ 0.0479 µM) | – | – | – | – | – | 0.05 (≈ 0.0959 µM)
CN(Cc1ccc(C#Cc2ccc(F)cc2)cc1)CC(O)(Cn1cncn1)c1ccc(F)cc1F (configuration not stated) | – | 0.006 (≈ 0.0126 µM) | 0.013 (≈ 0.0273 µM) | – | – | 0.006 (≈ 0.0126 µM) | 0.03 (≈ 0.063 µM) | – | 0.006 (≈ 0.0126 µM) | 0.013 (≈ 0.0273 µM) | – | – | – | – | – | 0.05 (≈ 0.105 µM)
CN(Cc1ccc(C#Cc2ccc(OCc3ccccc3)cc2)cc1)CC(O)(Cn1cncn1)c1ccc(F)cc1F (configuration not stated) | – | 0.013 (≈ 0.023 µM) | 0.05 (≈ 0.0886 µM) | – | – | 0.2 (≈ 0.354 µM) | 0.1 (≈ 0.177 µM) | – | 0.05 (≈ 0.0886 µM) | 0.1 (≈ 0.177 µM) | – | – | – | – | – | 0.1 (≈ 0.177 µM)
CN(Cc1ccc(C#Cc2ccccc2Cl)cc1)CC(O)(Cn1cncn1)c1ccc(F)cc1F (configuration not stated) | – | 0.006 (≈ 0.0122 µM) | 0.013 (≈ 0.0264 µM) | – | – | 0.006 (≈ 0.0122 µM) | 0.8 (≈ 1.62 µM) | – | 0.013 (≈ 0.0264 µM) | 0.013 (≈ 0.0264 µM) | – | – | – | – | – | 0.03 (≈ 0.0609 µM)
CN(Cc1ccc(C#Cc2ccc(C#N)cc2)cc1)CC(O)(Cn1cncn1)c1ccc(F)cc1F (configuration not stated) | – | 0.006 (≈ 0.0124 µM) | 0.013 (≈ 0.0269 µM) | – | – | 0.006 (≈ 0.0124 µM) | 0.1 (≈ 0.207 µM) | – | 0.013 (≈ 0.0269 µM) | 0.05 (≈ 0.103 µM) | – | – | – | – | – | 0.1 (≈ 0.207 µM)
Cc1ccc(C#Cc2ccc(CN(C)CC(O)(Cn3cncn3)c3ccc(F)cc3F)cc2)cc1 (configuration not stated) | – | 0.013 (≈ 0.0275 µM) | 0.013 (≈ 0.0275 µM) | – | – | 0.013 (≈ 0.0275 µM) | 0.4 (≈ 0.846 µM) | – | 0.013 (≈ 0.0275 µM) | 0.013 (≈ 0.0275 µM) | – | – | – | – | – | 0.2 (≈ 0.423 µM)
CN(Cc1ccc(C#Cc2ccc(Br)cc2)cc1)CC(O)(Cn1cncn1)c1ccc(F)cc1F (configuration not stated) | – | 0.013 (≈ 0.0242 µM) | 0.025 (≈ 0.0465 µM) | – | – | 0.006 (≈ 0.0112 µM) | 0.03 (≈ 0.0558 µM) | – | 0.013 (≈ 0.0242 µM) | 0.013 (≈ 0.0242 µM) | – | – | – | – | – | 0.01 (≈ 0.0186 µM)

Reference: ChEMBL document CHEMBL6092180 (Eur J Med Chem, 2024)
